Legend:
[1] = biological target: spartin-like protein from Chaetomium thermophilum (CtSpartinL), residues 7-480 (Chaetomium thermophilum); assay: native gel or EMSA
[2] = biological target: C. elegans spartin (CeSpartin) (C. elegans); assay: native gel or EMSA
CeSpartin = biological target: T1, CeSpartin (Caenorhabditis elegans, UniProt O44735); assay: FRET-based lipid transfer between tethered liposomes; type: biochemical; conditions: 30 C, pH 8.0, labelled compound
T1 sequence (O44735 1-476): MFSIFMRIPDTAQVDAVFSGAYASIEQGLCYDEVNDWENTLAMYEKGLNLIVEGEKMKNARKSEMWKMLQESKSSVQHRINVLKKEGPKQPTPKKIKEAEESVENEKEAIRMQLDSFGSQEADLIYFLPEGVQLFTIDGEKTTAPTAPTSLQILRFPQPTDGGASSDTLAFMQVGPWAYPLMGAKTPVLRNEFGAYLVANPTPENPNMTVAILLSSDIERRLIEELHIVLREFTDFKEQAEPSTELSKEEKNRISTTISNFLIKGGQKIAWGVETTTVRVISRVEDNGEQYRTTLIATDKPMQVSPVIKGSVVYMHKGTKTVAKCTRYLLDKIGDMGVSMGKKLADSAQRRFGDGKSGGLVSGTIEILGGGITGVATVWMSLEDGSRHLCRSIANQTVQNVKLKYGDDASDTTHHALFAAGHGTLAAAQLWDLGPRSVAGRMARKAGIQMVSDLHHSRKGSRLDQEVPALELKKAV

CtSpartinLSD = biological target: T2, CtSpartinLSD (Thermochaetoides thermophila, UniProt G0S883); assay: native gel comigration; type: binding; conditions: on ice, 2 h; labelled compound; also transferred between liposomes
T2 sequence (G0S883 186-480): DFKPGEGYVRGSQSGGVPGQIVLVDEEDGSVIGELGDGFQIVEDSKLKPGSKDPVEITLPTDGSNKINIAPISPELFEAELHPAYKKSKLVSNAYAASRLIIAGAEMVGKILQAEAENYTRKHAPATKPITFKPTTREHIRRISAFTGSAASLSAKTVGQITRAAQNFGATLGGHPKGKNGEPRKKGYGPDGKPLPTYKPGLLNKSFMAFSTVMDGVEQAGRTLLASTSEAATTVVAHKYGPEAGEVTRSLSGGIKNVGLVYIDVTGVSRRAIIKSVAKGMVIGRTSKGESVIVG

CtSpartinL = biological target: T3, CtSpartinL (Thermochaetoides thermophila, UniProt G0S883); assay: FRET-based lipid transfer between tethered liposomes; type: biochemical; conditions: 30 C, pH 8.0; labelled compound
T3 sequence (G0S883 7-480): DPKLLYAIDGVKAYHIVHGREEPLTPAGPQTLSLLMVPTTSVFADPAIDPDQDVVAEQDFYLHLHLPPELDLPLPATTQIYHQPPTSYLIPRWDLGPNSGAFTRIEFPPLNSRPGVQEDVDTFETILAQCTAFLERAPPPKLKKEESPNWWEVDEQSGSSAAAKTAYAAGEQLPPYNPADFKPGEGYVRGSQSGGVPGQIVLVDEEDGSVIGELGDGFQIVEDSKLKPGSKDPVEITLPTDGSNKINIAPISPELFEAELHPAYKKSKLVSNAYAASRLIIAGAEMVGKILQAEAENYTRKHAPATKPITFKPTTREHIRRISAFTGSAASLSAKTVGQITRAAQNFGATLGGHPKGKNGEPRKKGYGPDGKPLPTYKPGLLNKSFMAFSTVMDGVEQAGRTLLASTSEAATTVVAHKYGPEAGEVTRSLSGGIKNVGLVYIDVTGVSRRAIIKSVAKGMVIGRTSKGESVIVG

native gel or EMSA = biological target: the molecule itself; assay: native gel or EMSA

## spartin-like protein from Chaetomium thermophilum (CtSpartinL), residues 7-480 (natural protein)
[1]
  stoichiometry N: 3

## C. elegans spartin (CeSpartin) (natural protein)
[2]
  stoichiometry N: 3

## CCCCCCCCCCCCCCCC(=O)OC[C@H](COP(=O)([O-])OCC[N+](C)(C)C)OC(=O)CCCCCNc1ccc([N+](=O)[O-])c2nonc12 [NBD-PC, 1-palmitoyl-2-{6-[(7-nitro-2-1,3-benzoxadiazol-4-yl)amino]hexanoyl}-sn-glycero-3-phosphocholine]
CeSpartin
  FRET-based lipid transfer between tethered liposomes: we observed fluorescence increases consistent with NBD-PC or NBD-PE transfer
CtSpartinLSD
  native gel comigration: senescence domain fragment comigrates with NBD-PC on native gels
CtSpartinL
  FRET-based lipid transfer between tethered liposomes: addition of CeSpartin, HsSpartin or CtSpartinL to the liposomes all result in increased NBD fluorescence

## CCCCCCCCCCCCCCCC(=O)OC[C@H](COP(=O)(O)OCCN)OC(=O)CCCCCNc1ccc([N+](=O)[O-])c2nonc12 [NBD-PE, 1-palmitoyl-2-{6-[(7-nitro-2-1,3-benzoxadiazol-4-yl)amino]hexanoyl}-sn-glycero-3-phosphoethanolamine]
CeSpartin; less robust than NBD-PC
  FRET-based lipid transfer between tethered liposomes: we observed fluorescence increases consistent with NBD-PC or NBD-PE transfer

B1: human spartin (HsSpartin) (natural protein, UniProt Q8N0X7 1-666, looked up)
chain: MEQEPQNGEPAEIKIIREAYKKAFLFVNKGLNTDELGQKEEAKNYYKQGIGHLLRGISISSKESEHTGPGWESARQMQQKMKETLQNVRTRLEILEKGLATSLQNDLQEVPKLYPEFPPKDMCEKLPEPQSFSSAPQHAEVNGNTSTPSAGAVAAPASLSLPSQSCPAEAPPAYTPQAAEGHYTVSYGTDSGEFSSVGEEFYRNHSQPPPLETLGLDADELILIPNGVQIFFVNPAGEVSAPSYPGYLRIVRFLDNSLDTVLNRPPGFLQVCDWLYPLVPDRSPVLKCTAGAYMFPDTMLQAAGCFVGVVLSSELPEDDRELFEDLLRQMSDLRLQANWNRAEEENEFQIPGRTRPSSDQLKEASGTDVKQLDQGNKDVRHKGKRGKRAKDTSSEEVNLSHIVPCEPVPEEKPKELPEWSEKVAHNILSGASWVSWGLVKGAEITGKAIQKGASKLRERIQPEEKPVEVSPAVTKGLYIAKQATGGAAKVSQFLVDGVCTVANCVGKELAPHVKKHGSKLVPESLKKDKDGKSPLDGAMVVAASSVQGFSTVWQGLECAAKCIVNNVSAETVQTVRYKYGYNAGEATHHAVDSAVNVGVTAYNINNIGIKAMVKKTATQTGHTLLEDYQIVDNSQRENQEGAANVNVRGEKDEQTKEVKEAKKKDK
Native gel or EMSA
  stoichiometry N: ~3

Source: article PMC10801920 (Proceedings of the National Academy of Sciences of the …, 2024)
